Patent publication US9108921B2, “Therapeutic compounds and compositions” (AGIOS PHARMACEUTICALS, INC, priority 2014, dated 2015)

Key:
PKR R510Q = PKR R510Q (Homo sapiens, UniProt P30613, R510Q); experiment: PKR Mutant Assay, AC50 against PKR R510Q; assay type: biochemical; conditions: mutant PKR R510Q enzyme
Procedure, shortened: (§1)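 Human PKR (WT or mutant, 80-400 ng/well) in 50 mM Tris pH 7.5, 100 mM KCl, 5 mM MgCl2, 1 mM DTT, 0.03% BSA with PEP 0.1-0.5 mM, NADH 180 uM and LDH, preincubated 60 min at room temperature with compound (11-point 3-fold series from 100 μM final, 1% DMSO). ADP 0.22-1.65 mM started reaction; A340 followed.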

PKR R532W = PKR R532W (Homo sapiens, UniProt P30613, R532W); experiment: PKR Mutant Assay, AC50 against PKR R532W; assay type: biochemical; conditions: mutant PKR R532W enzyme
Chain of PKR R532W (P30613 whole entry R532W): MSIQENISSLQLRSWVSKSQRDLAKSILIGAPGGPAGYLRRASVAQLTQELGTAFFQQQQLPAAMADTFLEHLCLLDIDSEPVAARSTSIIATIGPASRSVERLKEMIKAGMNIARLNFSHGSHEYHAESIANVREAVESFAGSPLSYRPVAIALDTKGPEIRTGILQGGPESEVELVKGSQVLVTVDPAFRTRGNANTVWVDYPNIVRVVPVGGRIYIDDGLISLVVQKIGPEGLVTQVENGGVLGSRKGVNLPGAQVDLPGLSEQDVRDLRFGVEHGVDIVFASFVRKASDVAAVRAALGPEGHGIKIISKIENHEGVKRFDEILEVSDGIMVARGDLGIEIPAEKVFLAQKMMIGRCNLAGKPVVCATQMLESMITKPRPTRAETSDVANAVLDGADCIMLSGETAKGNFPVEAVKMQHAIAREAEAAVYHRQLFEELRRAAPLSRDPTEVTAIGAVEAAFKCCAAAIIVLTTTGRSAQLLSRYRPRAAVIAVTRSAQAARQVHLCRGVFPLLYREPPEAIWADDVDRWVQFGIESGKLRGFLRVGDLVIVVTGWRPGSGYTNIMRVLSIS
Procedure, shortened: as §1

PKR WT [1] = biological target: T1, PKR WT (Homo sapiens, UniProt P30613); experiment: PKR WT enzymatic AC50 assay; assay type: biochemical; conditions: wild type PKR
T1 sequence (P30613 whole entry): as the sequence (P30613 whole entry R532W) above, with W532R counted along it
Procedure, shortened: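 Steps: compound added to wells, then reaction mix lacking ADP; 60 min room-temperature hold; ADP (0.22-1.65 mM) added to start; A340 monitored at room temperature via PEP/LDH/NADH coupling. Top final compound concentration 100 μM, 3-fold dilutions over 11 points.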

PKR WT [2] = biological target: T1, PKR WT; experiment: PKR WT cell based AC50 assay; conditions: wild type PKR

Chain of PKR R510Q (P30613 whole entry R510Q): as the sequence (P30613 whole entry R532W) above, with R510Q, W532R counted along it

Structure (SMILES)	AC50 (PKR R510Q)	AC50 (PKR R532W)	AC50 (PKR WT [1])	AC50 (PKR WT [2])
Cc1cc(C(=O)N2CCC(O)(c3ccccc3Cl)CC2)ccc1NS(=O)(=O)c1cccc2cccnc12 [Compound 104, N-(4-(4-(2-chlorophenyl)-4-hydroxypiperidine-1-carbonyl)-2-methylphenyl)quinoline-8-sulfonamide]	< 100 nM	< 100 nM	< 100 nM	< 100 nM
CC(C)CC1(C=O)CCN(C(=O)c2ccc(NS(=O)(=O)c3cccc4cccnc34)cc2)CC1 [Compound 137, N-(4-(4-formyl-4-isobutylpiperidine-1-carbonyl)phenyl)quinoline-8-sulfonamide]	< 100 nM	< 100 nM	< 100 nM	< 100 nM
CC(C)(F)CC1(O)CCN(C(=O)c2ccc(NS(=O)(=O)c3cccc4scnc34)cc2)CC1 [Compound 403, N-(4-(4-(2-fluoro-2-methylpropyl)-4-hydroxypiperidine-1-carbonyl)phenyl)benzo[d]thiazole-4-sulfonamide]	101 to 1000 nM	< 100 nM	101 to 1000 nM	< 100 nM
O=C(c1ccc(NS(=O)(=O)c2cccc3cccnc23)cc1)N1CCC(O)(c2ccccc2O)CC1 [Compound 228, N-[4-[4-hydroxy-4-(2-hydroxyphenyl)piperidine-1-carbonyl]phenyl]quinoline-8-sulfonamide]	1010 to 10000 nM	< 100 nM	101 to 1000 nM	< 100 nM
CCOC(=O)C1(CC(C)C)CCN(C(=O)c2ccc(NS(=O)(=O)c3cccc4cccnc34)cc2)CC1 [Compound 250, Ethyl 4-isobutyl-1-(4-(quinoline-8-sulfonamido)benzoyl)piperidine-4-carboxylate]	1010 to 10000 nM	101 to 1000 nM	101 to 1000 nM	1010 to 10000 nM
O=C(c1ccc(NS(=O)(=O)c2cccc3ccc(F)nc23)cc1)N1CCC(O)(c2ccccc2Cl)CC1 [Compound 224, N-(4-(4-(2-chlorophenyl)-4-hydroxypiperidine-1-carbonyl)phenyl)-2-fluoroquinoline-8-sulfonamide]	1010 to 10000 nM	< 100 nM	< 100 nM	101 to 1000 nM
CNc1nc2c(S(=O)(=O)Nc3ccc(C(=O)N4CCC(O)(CC(C)C)CC4)cc3)cccc2s1 [Compound 408, N-(4-(4-hydroxy-4-isobutylpiperidine-1-carbonyl)phenyl)-2-(methylamino)benzo[d]thiazole-4-sulfonamide]	< 100 nM	< 100 nM	< 100 nM	< 100 nM
O=C(c1ccc(NS(=O)(=O)c2cccc3scnc23)cc1)N1CCC(O)(c2cccc(F)c2F)CC1 [Compound 178, N-(4-(4-(2,3-difluorophenyl)-4-hydroxypiperidine-1-carbonyl)phenyl)benzo[d]thiazole-4-sulfonamide]	101 to 1000 nM	< 100 nM	< 100 nM	< 100 nM
O=C(c1ccc(NS(=O)(=O)c2cccc3nccnc23)cc1)N1CCC(O)(CCC(F)=C(F)F)CC1 [Compound 398, N-(4-(4-hydroxy-4-(3,4,4-trifluorobut-3-enyl)piperidine-1-carbonyl)phenyl)quinoxaline-5-sulfonamide]	101 to 1000 nM	< 100 nM	< 100 nM	< 100 nM
CC(C)CC1(O)CCN(C(=O)c2ccc(NS(=O)(=O)c3cccc(O)c3N)cc2)CC1 [Compound 380, 2-amino-3-hydroxy-N-(4-(4-hydroxy-4-isobutylpiperidine-1-carbonyl)phenyl)benzenesulfonamide]	101 to 1000 nM	101 to 1000 nM	< 100 nM	< 100 nM
O=C(c1ccc(NS(=O)(=O)c2cccc3scnc23)cc1)N1CCC(O)(CCCC(F)(F)F)CC1 [Compound 394, N-(4-(4-hydroxy-4-(4,4,4-trifluorobutyl)piperidine-1-carbonyl)phenyl)benzo[d]thiazole-4-sulfonamide]	101 to 1000 nM	< 100 nM	< 100 nM	< 100 nM
